Laboratory results as given in ChEMBL document CHEMBL4311972, “Discovery of a benzothiophene-flavonol halting miltefosine and antimonial drug resistance in Leishmania parasites through the application of medicinal chemistry, screening and genomics” (Eur J Med Chem, 2019).
pEC50: −log10 of the molar value. The source made the active and inactive calls. The calls are words filed in the database; no cut-off is given here.

How the values were obtained:
786-0 = assay: Mitochondrial toxicity in human 786-0 cells at 10 uM incubated with compound for 6 hrs followed by incubation with MitoTracker Red chloromethyl-X-rosamine dye for 45 mins by imaging analysis; type: cell-based; details: 786-0, 6 h
CYP1A2 = target: T1, CYP1A2 (Homo sapiens, UniProt P05177); assay: Inhibition of human microsomal CYP1A2 expressed in baculovirus infected insect cells at 10 uM using luciferin-1A2 as substrate preincubated with enzyme/substrate mixture for 30 mins followed by further incubation with NADPH for 30 mins by CYP450 luciferase Glo assay relative to control; type: ADME; details: probe luciferin-1A2
T1 sequence (P05177 whole entry): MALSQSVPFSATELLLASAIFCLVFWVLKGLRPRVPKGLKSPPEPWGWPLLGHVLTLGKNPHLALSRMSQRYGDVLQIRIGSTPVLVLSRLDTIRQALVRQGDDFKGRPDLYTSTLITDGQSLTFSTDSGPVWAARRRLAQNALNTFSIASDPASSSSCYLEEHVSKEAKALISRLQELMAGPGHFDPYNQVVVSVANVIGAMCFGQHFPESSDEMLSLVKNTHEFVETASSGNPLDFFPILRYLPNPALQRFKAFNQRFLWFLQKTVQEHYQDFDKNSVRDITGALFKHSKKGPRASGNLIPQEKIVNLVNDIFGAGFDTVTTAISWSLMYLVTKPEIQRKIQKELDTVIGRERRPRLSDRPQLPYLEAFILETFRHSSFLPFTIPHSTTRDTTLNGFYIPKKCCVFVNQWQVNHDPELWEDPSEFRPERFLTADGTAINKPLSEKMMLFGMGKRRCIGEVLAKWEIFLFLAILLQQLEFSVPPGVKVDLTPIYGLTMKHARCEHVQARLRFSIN

Trypanosoma cruzi [1] = assay: Antitrypanosomal activity against intracellular amastigote stage of Trypanosoma cruzi Silvio X10/1 infected in human U2OS cells measured after 96 hrs by DRAQ5 dye based microscopic analysis; type: functional, organism-based
CYP2D6 = CYP2D6 (Homo sapiens, UniProt P10635); assay: Inhibition of human microsomal CYP2D6 expressed in baculovirus infected insect cells at 10 uM using luciferin-ME as substrate preincubated with enzyme/substrate mixture for 30 mins followed by further incubation with NADPH for 30 mins by CYP450 luciferase Glo assay relative to control; type: ADME; details: probe luciferin-ME
Trypanosoma cruzi [2] = assay: Antitrypanosomal activity against intracellular amastigote stage of Trypanosoma cruzi ARMA 13 cl1 infected in human U2OS cells measured after 96 hrs by DRAQ5 dye based microscopic analysis; type: functional, organism-based
[3] = Toxicity in Syrian hamster infected with Leishmania infantum BCN150 promastigotes assessed as liver lesions at 40 mg/kg/day, po for 10 days formulated with 30 to 50% v/v cyclodextrin measured under necropsy; type: organism-based, Mesocricetus auratus; details: in vivo, 240 h
hERG (KCNH2) = hERG (KCNH2) (Homo sapiens, UniProt Q12809); assay: Inhibition of human ERG at 10 uM incubated for 2 hrs by fluorescence polarization assay relative to control
CYP3A4 = CYP3A4 (Homo sapiens, UniProt P08684); assay: Inhibition of human microsomal CYP3A4 expressed in baculovirus infected insect cells at 10 uM using luciferin-IPA as substrate preincubated with enzyme/substrate mixture for 30 mins followed by further incubation with NADPH for 30 mins by CYP450 luciferase Glo assay relative to control; type: ADME; details: probe luciferin-IPA
Albumin [4] = target: T2, Albumin (Homo sapiens, UniProt P02768); assay: Binding affinity to human serum albumin in phosphate buffer assessed as increase in emission intensity at 530-550 nm at 5 uM measured at pH 8 at albumin concentration of 2 uM by fluorescence emission spectrum analysis; type: ADME; details: isolated protein, pH 8, 5 µM
Leishmania donovani [5] = assay: Antileishmanial activity against promastigote form of Leishmania donovani assessed as parasite growth inhibition; type: functional, organism-based
Leishmania infantum [6] = assay: Antileishmanial activity against luciferase expressing intracellular amastigote stage of Leishmania infantum infected in human THP1 cells assessed as parasite growth inhibition measured after 48 to 72 hrs by steady-glo luciferase assay; type: functional, organism-based; details: Leishmania infantum, THP-1; read-out: EC50
Trypanosoma cruzi [7] = assay: Antitrypanosomal activity against Trypanosoma cruzi strain Y trypomastigotes infected in human HG39 cells by TaqMan probe based RT-PCR analysis; type: functional, organism-based
Leishmania infantum [8] = assay: Antileishmanial activity against Leishmania infantum amastigotes infected in Syrian hamster assessed as reduction in parasite load at 40 mg/kg/day, po for 10 days formulated with 30% v/v cyclodextrin relative to control; type: functional; details: 240 h
Trypanosoma cruzi [9] = assay: Antitrypanosomal activity against intracellular amastigote stage of Trypanosoma cruzi CL Brener infected in human U2OS cells measured after 96 hrs by DRAQ5 dye based microscopic analysis; type: functional, organism-based
[10] = Plasma concentration in syrian hamster infected with Leishmania infantum BCN150 promastigote at 40 mg/kg/day, po for 10 days formulated with 50% v/v cyclodextrin; type: ADME, organism-based, Mesocricetus auratus
[11] = Cytotoxicity against human A549 cells assessed as cell growth at […] incubated for 48 hrs by Celltiter-Glo luminescence assay relative to control; type: cell-based; parameters: dose or concentration left out as unconfirmed; details: read-out: Activity
Leishmania major = assay: Antileishmanial activity against promastigote form of Leishmania major assessed as parasite growth inhibition; type: functional, organism-based
Albumin [12] = target: T2, Albumin; assay: Binding affinity to human serum albumin in phosphate buffer assessed as decrease in emission intensity at 450 nm at 5 uM measured at pH 8 at albumin concentration of 0.6 +/-0.1 uM by fluorescence emission spectrum analysis; type: ADME; parameters: scale not given: the % may be the effect or the level left; details: isolated protein
Trypanosoma cruzi [13] = assay: Antitrypanosomal activity against intracellular amastigote stage of Trypanosoma cruzi 92.80 cl2 infected in human U2OS cells measured after 96 hrs by DRAQ5 dye based microscopic analysis; type: functional, organism-based
[14] = Thermodynamic solubility of the compound in water at >50 uM; type: physicochemical; details: buffer
Leishmania donovani [15] = assay: Antileishmanial activity against Leishmania donovani BPK091 promastigotes transfected with Leishmania donovani BPK190 genomic cosmid DNA assessed as parasite growth at IC50 concentration incubated with compound for 3 days under selective pressure and selection cycle repeated 10 times and measured at 37 days of selection relative to control; type: functional
Trypanosoma cruzi [16] = assay: Antitrypanosomal activity against intracellular amastigote stage of Trypanosoma cruzi Y infected in human U2OS cells measured after 96 hrs by DRAQ5 dye based microscopic analysis; type: functional, organism-based
[17] = Toxicity in Syrian hamster infected with Leishmania infantum BCN150 promastigotes assessed as liver lesions at 40 mg/kg/day, po for 10 days formulated with 8% v/v DMSO measured under necropsy; type: organism-based, Mesocricetus auratus; details: in vivo, 240 h
CYP2C19 = CYP2C19 (Homo sapiens, UniProt P33261); assay: Inhibition of human microsomal CYP2C19 expressed in baculovirus infected insect cells at 10 uM using luciferin-H EGE as substrate preincubated with enzyme/substrate mixture for 30 mins followed by further incubation with NADPH for 30 mins by CYP450 luciferase Glo assay relative to control; type: ADME; details: probe luciferin-H EGE
Trypanosoma brucei = assay: Antitrypanosomal activity against Trypanosoma brucei bloodstream form assessed as parasite growth inhibition incubated for 72 hrs by resazurin dye based assay; type: functional, organism-based; details: Trypanosoma brucei, 72 h; read-out: EC50
[18] = Toxicity in Syrian hamster infected with Leishmania infantum BCN150 promastigotes assessed as liver lesions at 20 mg/kg/day, po for 10 days; type: organism-based, Mesocricetus auratus; details: in vivo, 240 h
[19] = Plasma concentration in syrian hamster infected with Leishmania infantum BCN150 promastigote at 20 mg/kg/day, po for 10 days; type: ADME, organism-based, Mesocricetus auratus
[20] = Toxicity in Syrian hamster infected with Leishmania infantum BCN150 promastigotes assessed as effect on ALT level at 20 mg/kg/day, po for 10 days measured after the last treatment; type: organism-based, Mesocricetus auratus; details: in vivo, 240 h

Sequence of CYP2C19 (P33261 whole entry): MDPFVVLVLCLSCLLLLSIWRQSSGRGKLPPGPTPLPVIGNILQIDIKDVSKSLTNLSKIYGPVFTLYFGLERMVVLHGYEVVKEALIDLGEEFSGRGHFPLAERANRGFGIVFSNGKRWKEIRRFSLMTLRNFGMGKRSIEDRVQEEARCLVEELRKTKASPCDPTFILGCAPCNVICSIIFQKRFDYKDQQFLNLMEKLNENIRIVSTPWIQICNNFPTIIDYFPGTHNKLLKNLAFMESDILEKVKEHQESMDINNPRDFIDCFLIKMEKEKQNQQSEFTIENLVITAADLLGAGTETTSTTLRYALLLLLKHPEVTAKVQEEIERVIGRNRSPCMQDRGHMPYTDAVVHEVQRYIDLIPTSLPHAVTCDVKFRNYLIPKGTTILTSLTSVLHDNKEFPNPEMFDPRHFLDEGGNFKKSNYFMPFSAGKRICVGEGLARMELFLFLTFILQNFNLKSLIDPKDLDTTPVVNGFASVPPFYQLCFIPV
Sequence of hERG (KCNH2) (Q12809 whole entry): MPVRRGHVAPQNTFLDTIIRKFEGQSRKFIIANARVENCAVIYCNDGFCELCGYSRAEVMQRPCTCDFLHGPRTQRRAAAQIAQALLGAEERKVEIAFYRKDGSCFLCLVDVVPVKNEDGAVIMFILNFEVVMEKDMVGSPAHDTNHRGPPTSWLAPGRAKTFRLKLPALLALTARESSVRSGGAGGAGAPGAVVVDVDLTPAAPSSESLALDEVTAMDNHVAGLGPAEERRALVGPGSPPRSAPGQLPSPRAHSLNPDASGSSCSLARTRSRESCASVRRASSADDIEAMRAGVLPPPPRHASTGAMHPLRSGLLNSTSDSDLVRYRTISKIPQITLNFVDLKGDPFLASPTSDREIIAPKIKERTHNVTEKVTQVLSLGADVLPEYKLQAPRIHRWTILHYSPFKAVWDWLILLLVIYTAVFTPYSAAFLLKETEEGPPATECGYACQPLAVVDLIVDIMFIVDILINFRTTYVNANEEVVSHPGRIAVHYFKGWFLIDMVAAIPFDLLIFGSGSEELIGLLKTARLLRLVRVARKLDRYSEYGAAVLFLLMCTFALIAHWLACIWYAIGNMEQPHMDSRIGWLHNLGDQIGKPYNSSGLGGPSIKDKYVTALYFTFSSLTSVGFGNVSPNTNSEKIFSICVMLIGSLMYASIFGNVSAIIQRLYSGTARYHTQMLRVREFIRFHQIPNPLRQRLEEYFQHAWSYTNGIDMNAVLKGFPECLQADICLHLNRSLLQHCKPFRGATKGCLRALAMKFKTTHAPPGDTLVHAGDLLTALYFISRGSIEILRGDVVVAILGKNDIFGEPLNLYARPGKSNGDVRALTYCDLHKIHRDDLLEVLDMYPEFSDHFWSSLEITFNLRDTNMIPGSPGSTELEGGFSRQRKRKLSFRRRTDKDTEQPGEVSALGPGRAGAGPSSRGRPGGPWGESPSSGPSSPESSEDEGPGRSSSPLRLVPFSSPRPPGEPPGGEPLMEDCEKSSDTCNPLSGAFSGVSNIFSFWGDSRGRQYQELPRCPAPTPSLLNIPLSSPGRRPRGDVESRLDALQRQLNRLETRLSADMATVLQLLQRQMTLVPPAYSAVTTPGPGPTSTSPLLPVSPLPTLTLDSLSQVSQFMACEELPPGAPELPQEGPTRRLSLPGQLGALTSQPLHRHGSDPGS
T2 sequence (P02768 whole entry): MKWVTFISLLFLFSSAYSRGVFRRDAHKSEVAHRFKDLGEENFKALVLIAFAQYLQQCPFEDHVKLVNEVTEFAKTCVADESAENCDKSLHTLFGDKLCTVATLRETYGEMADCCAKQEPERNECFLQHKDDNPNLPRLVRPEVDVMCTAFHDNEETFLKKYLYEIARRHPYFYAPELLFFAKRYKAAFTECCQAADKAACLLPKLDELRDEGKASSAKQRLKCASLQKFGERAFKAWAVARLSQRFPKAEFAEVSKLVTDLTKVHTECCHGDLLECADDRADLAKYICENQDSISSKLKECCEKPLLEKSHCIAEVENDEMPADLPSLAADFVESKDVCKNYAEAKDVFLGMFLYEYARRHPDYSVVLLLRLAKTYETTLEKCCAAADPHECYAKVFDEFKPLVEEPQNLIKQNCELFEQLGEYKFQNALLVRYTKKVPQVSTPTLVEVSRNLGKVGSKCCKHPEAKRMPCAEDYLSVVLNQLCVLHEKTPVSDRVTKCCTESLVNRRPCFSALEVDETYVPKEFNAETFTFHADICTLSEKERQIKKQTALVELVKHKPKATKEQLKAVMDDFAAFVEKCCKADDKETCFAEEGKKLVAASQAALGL
Sequence of CYP2D6 (P10635 whole entry): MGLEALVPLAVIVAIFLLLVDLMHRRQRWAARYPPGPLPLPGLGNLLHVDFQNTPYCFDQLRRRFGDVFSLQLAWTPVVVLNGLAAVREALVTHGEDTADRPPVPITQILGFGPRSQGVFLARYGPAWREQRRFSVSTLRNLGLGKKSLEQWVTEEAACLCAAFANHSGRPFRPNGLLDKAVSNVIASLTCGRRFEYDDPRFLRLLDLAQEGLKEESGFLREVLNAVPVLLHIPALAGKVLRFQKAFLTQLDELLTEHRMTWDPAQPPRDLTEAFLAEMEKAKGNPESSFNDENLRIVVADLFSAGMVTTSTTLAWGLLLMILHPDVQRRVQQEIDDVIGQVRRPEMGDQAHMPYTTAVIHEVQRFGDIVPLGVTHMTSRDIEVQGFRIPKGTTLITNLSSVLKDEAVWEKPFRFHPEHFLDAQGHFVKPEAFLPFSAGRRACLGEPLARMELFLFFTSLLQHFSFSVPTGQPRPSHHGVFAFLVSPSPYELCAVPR
Sequence of CYP3A4 (P08684 whole entry): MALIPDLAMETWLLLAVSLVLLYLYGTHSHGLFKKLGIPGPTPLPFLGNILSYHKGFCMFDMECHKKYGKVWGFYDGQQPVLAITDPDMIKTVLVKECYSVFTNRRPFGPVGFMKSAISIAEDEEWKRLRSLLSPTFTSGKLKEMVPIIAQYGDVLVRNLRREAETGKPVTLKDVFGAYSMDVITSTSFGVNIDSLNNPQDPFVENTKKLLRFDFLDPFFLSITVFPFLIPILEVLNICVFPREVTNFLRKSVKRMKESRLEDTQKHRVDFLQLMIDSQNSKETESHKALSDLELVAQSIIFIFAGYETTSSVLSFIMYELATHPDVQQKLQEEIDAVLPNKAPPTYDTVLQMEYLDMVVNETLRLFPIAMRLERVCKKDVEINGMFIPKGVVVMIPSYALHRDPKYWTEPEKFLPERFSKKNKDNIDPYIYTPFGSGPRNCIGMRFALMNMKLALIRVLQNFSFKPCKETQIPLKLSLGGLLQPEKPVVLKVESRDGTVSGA

Row | SMILES | Activity (786-0) [%] | inhibition at 0.5 h, 10 µM (CYP1A2) [%] | inhibition at 0.5 h, 10 µM (CYP2D6) [%] | inhibition at 2 h, 10 µM (hERG (KCNH2)) [%] | inhibition at 0.5 h, 10 µM (CYP3A4) [%] | pEC50 (Leishmania donovani [5]) | pEC50 (Leishmania infantum [6]) | pEC50 (Trypanosoma cruzi [7]) | viability at 48 h [11] [%] | Therm_solubility [14] | Activity (Leishmania donovani [15]) [%] | inhibition at 0.5 h, 10 µM (CYP2C19) [%] | pEC50 (Trypanosoma brucei) | also measured
1 | COc1ccc2oc(-c3csc4ccccc34)c(O)c(=O)c2c1 | -22.85 | 99.7 | 26.2 | 32 | 23.3 | 5.47 | 5.73 | 5.12 | 3.19 | Insoluble | >50 | -6.32 | 6.10 | pEC50 (Trypanosoma cruzi [1]; Silvio X10/1, U2OS): 6.52; pEC50 (Trypanosoma cruzi [2]; ARMA 13 cl1, U2OS): 5.92; Activity [3]: Non-Toxic; Activity (Albumin [4]): 50%; inhibition in vivo at 40 mg/kg/day (Leishmania infantum [8]): 28.8%; pEC50 (Trypanosoma cruzi [9]): 6.22; concentration at 240 h [10]: 0.038 µM; pEC50 (Leishmania major): 5.17; Activity (Albumin [12]): 50%; pEC50 (Trypanosoma cruzi [13]; 92.80 cl2, U2OS): 6.15; pEC50 (Trypanosoma cruzi [16]): 6.05; Activity [17]: Non-Toxic
2 | CCCCCCCCCCCCCCCCOP(=O)([O-])OCC[N+](C)(C)C [MILTEFOSINE] | 3.4 | -20 | 30.8 | -16.9 | 8.4 | 5.05 | 5.49 to 5.60 | 4.90 | 95.8 | Insoluble | >50 | 7.9 | 4.47 | inhibition (Trypanosoma cruzi [1]): Active; inhibition (Trypanosoma cruzi [2]): Active; inhibition (Trypanosoma cruzi [9]): Active; Activity [18]: Non-Toxic; inhibition (Leishmania major): Active; inhibition (Trypanosoma cruzi [13]): Active; concentration at 240 h [19]: 59.3 µM; inhibition (Trypanosoma cruzi [16]): Active; Activity [20]: Non-Toxic
